Experimental data: patent US20210008541A1, “INSTRUMENT AND METHODS FOR AUTOMATED SAMPLE PREPARATION FOR MICROORGANISM IDENTIFICATION AND DIFFERENTIATION” (Accelerate Diagnostics, Inc., priority 2019, published 2021)

How the values were obtained:
[1] = system: ECOL_ATCC_25922; assay: Disk diffusion inhibition of RAM ingredients on MHA plates; format: cell-based, Escherichia coli; conditions: 100 μL dispensed on MHA plate, lawned with ECOL_ATCC_25922
Experimental: (§1) Thus, each of the ingredients was checked for potential inhibition. The first portion of this study was meant to determine the source of inhibition and to formulate different variations of a respiratory artificial matrix (RAM) to use as a pellet former. To complete this objective, 100 μL of each of the ingredients was dispensed onto the center of four different Mueller Hinton Agar (MHA) plates. After letting the plates dry for ˜2 hours they were lawned with the following four bacteria: ECOL_ATCC_25922, SAUR_ATCC_29213, PROV_ATCC_6380 and PRMI_IHMA_827374. The following day the plates were measured for zones of inhibition. Following this, the pellet former recipe was optimized to exclude non-sterile components. […] Many fresh positive specimens of varying viscosities were then tested with an assay that incorporated this pellet former by adding 500 μL to the capsule with 1500 μL of BAL or mini-BAL specimen.

[2] = system: SAUR_ATCC_29213; assay: as above; format: cell-based, Staphylococcus aureus; conditions: 100 μL dispensed on MHA plate, lawned with SAUR_ATCC_29213
Experimental: as §1

[3] = system: PROV_ATCC_6380; assay: as above; format: cell-based, Proteus vulgaris; conditions: 100 μL dispensed on MHA plate, lawned with PROV_ATCC_6380
Experimental: as §1

[4] = system: PRMI_IHMA_827374; assay: as above; format: cell-based, Proteus mirabilis; conditions: 100 μL dispensed on MHA plate, lawned with PRMI_IHMA_827374
Experimental: as §1

[5] = system: ECOL_ATCC_25922, SAUR_ATCC_29213, PROV_ATCC_6380 and PRMI_IHMA_827374; assay: Disk diffusion inhibition of RAM ingredients, all four lawned bacteria; format: cell-based
Experimental: Thus, each of the ingredients was checked for potential inhibition. […] To complete this objective, 100 μL of each of the ingredients was dispensed onto the center of four different Mueller Hinton Agar (MHA) plates. After letting the plates dry for ˜2 hours they were lawned with the following four bacteria: ECOL_ATCC_25922, SAUR_ATCC_29213, PROV_ATCC_6380 and PRMI_IHMA_827374. The following day the plates were measured for zones of inhibition.

Compound: O=C(O)CN(CCN(CC(=O)O)CC(=O)O)CCN(CC(=O)O)CC(=O)O [DTPA alone, DTPA]
- Disk Diffusion Inhibition (zone of inhibition) [1]: 7 mm
- Disk Diffusion Inhibition (zone of inhibition) [2]: 19 mm
- Disk Diffusion Inhibition (zone of inhibition) [3]: 26 mm
- Disk Diffusion Inhibition (zone of inhibition) [4]: 30 mm
- Inhibition by disk diffusion method [5]: inhibited each of the organisms tested
